# Measured values taken from patent publication US20040054195A1, “Xanthene derivatives” (priority 2003, published 2004).
# Where “and” joins values, the source holds several entries; their conditions need not be identical. Identical values can stand only once.
# Legend:
# [1] = Photostability study: irradiation with a 200 W soft white bulb, fluorescence of aliquots vs. time; type: physicochemical; conditions: 50 nM in pH 10 borate buffer, 200 watt soft white bulb at 10 cm, excitation at 459 nm, FIG. 4
# Method: FIG. 4. Photostability comparison vs. time (hour) of 5 (*), 8 (▪), fluorescein (Δ) and BODIPY FL (♦); concentration 50 nM in pH 10 borate buffer. Excited at 459 nm for 5 and 8, 488 nm for fluorescein, 505 nm for BODIPY FL.
# The photostability study was conducted by irradiating a 50 nM pH 10 sample solution of each dye (1, BODIPY-FL, 5 and 8) using a Hotspot lamp (Cheltenham, Pa.) with a 200W soft white bulb (General Electric, Canada), positioned at a distance of 10 cm between the sample and the bulb. The sample solution was cooled by circulating room temperature water. Fluorescence spectra were recorded on aliquots taken as a function of time.
# [2] = UV absorbance spectrum in pH 10 borate buffer; type: physicochemical; conditions: 10 μM, inset of FIG. 3
# Method: FIG. 3. Fluorescence spectra. Curve A: BODIPY FL in pH 10 buffer, 50 nM, excited at 505 nm, excitation and emission slit 2.5 nm; Curve B: fluorescein in pH 10 borate buffer, 50 nM, excited at 488 nm, excitation and emission slit 2.5 nm; Curve C: compound 8 in pH 10 borate buffer, 50 nM, excited at 459 nm, excitation slit 2.5 nm, emission slit 8 nm; Curve D: compound 8 in methanol, 50 nM, excited at 459 nm, excitation slit 2.5 nm, emission slit 8 nm; Inset is UV spectrum of 8 in pH 10 borate buffer, 10 μM, peak absorption wavelength: 459 nm and 483 nm.
# In FIG. 3 the fluorescence spectra of fluorescein, a BODPIY FL dye (Molecular Probes Inc., Eugene Oreg.), and xanthamide dye 8 are compared. Fluorescein and BODIPY dyes are popular, and many instruments have been set up for their measurement. Thus it is attractive that xanthamide dye 8 has a similar fluorescence emission relative to that of fluorescein and a typical BODIPY dye. […] This adds to the practicality of 8.
SMILES,photostability relative to fluorescein and a typical BODIPY dye [1],absorbance maxima [2]
"CN(C)C(=O)c1ccccc1-c1c2ccc(=O)cc-2oc2cc(OCC(=O)O)ccc12 [compound 5, [9-(2-Dimethylcarbamoyl-phenyl)-6-oxo-6H-xanthen-3-yloxy]-acetic acid]",very good photostability,
"COc1ccc2c(-c3ccccc3C(=O)N3CCC(C(=O)O)CC3)c3ccc(=O)cc-3oc2c1 [compound 8, 1-[2-(6-Methoxy-3-oxo-3H-xanthen-9-yl)-benzoyl]-piperidine-4-carboxylic acid]",remarkable photostability,459 nm and 483 nm
